PubChem BioAssay (NCI)
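In this assay, cells in 96-well plates receive the compound at five concentrations for 48 hours. Endpoints are linearly interpolated between the surrounding concentrations. TGI marks complete inhibition of growth.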

How the values were obtained:
Assay in all cases: NCI-60 cell line screen, 48 h
[1] = test system: CCRF-CEM leukemia
[2] = test system: HS 578T breast
[3] = test system: MCF7 breast
[4] = test system: NCI-H226 lung
[5] = test system: OVCAR-4 ovarian
[6] = test system: SK-MEL-2 melanoma
[7] = test system: TK-10 renal
[8] = test system: U251 CNS

| SMILES | TGI [1] | TGI [2] | TGI [3] | TGI [4] | TGI [5] | TGI [6] | TGI [7] | TGI [8] |
| --- | --- | --- | --- | --- | --- | --- | --- | --- |
| Nc1nc2c(c(-c3cccc(Cl)c3)n1)COC/C2=C\c1cccc(Cl)c1 | > 100 µM | > 100 µM | > 100 µM | > 100 µM | > 100 µM | > 100 µM | > 100 µM | > 100 µM |
| Cc1ccc(N(Cc2ccccc2)Cc2ccccc2)cc1 | 65.4 µM | > 100 µM | > 100 µM | > 100 µM | > 100 µM | 63.3 µM | > 100 µM | > 100 µM |
| O=[N+]([O-])c1cc(C=NC23CC4CC(CC(C4)C2)C3)ccc1Cl | 7.97 µM | > 94 µM | 27.9 µM | > 81.3 µM | 36.3 µM | > 100 µM | > 87.2 µM | 41.6 µM |
| O=C1CCCCC1CN1CCCCC1 (stereo not given) | > 100 µM | > 100 µM | > 100 µM | > 100 µM | > 100 µM | > 100 µM | > 100 µM | > 100 µM |
| CC1(C)O[C@H]2OC(CO[Si](C)(C)C(C)(C)C)C(N=[N+]=[N-])[C@H]2O1 (stereo not given in full) | 38.3 µM | 51.5 µM | 36.8 µM | 38.7 µM | 71.7 µM | 32 µM | 36.7 µM | 48.1 µM |
| CCC(=O)NCC1CCCN2CCCCC12 (stereo not given) | > 100 µM | > 100 µM | > 100 µM | > 100 µM | > 100 µM | > 100 µM | > 100 µM | > 100 µM |
| CCOC(=O)Nc1sc2c(c1C#N)CCCC2 | > 100 µM | > 100 µM | > 100 µM | > 100 µM | > 100 µM | > 100 µM | > 100 µM | > 100 µM |
| Cc1ccccc1C(=N)c1ccccc1Cc1cccc2ccccc12 | 42.7 µM | 26.3 µM | 48.6 µM | 45 µM | > 100 µM | 35.1 µM | > 100 µM | 33.9 µM |
| COc1ccc(N=NC(=Nc2ccccc2)c2ccc(N(CCC#N)CCC#N)cc2)cc1 | – | > 100 µM | 73 µM | > 100 µM | > 100 µM | > 100 µM | > 100 µM | > 100 µM |
| N#CC(NCc1cccc(CNC(C#N)c2ccccc2)c1)c1ccccc1 (stereo not given) | 36.5 µM | > 100 µM | 56.6 µM | > 100 µM | > 100 µM | > 100 µM | > 100 µM | > 100 µM |
| N[C@@H](CCC(=O)NCP(=O)(O)O)C(=O)O | – | > 100 µM | > 100 µM | – | – | > 100 µM | > 100 µM | > 100 µM |
| COc1cccc(Nc2nc(-c3cccs3)nc3cc(OC)c(OC)cc23)c1 | – | 75.3 µM | 49.2 µM | > 100 µM | > 100 µM | > 100 µM | > 100 µM | 61.8 µM |
| O=[N+]([O-])c1ccc(Cl)cc1N/N=C/c1ccnc2ccccc12 | > 100 µM | > 100 µM | > 100 µM | > 100 µM | > 100 µM | – | > 100 µM | > 100 µM |
| COc1cc(S(=O)(=O)Nc2nc(-c3ccc(N4C(=O)C(CC(=O)O)SC4c4cccs4)cc3)cs2)ccc1Cl (stereo not given) | – | > 100 µM | 65.8 µM | > 100 µM | 66.4 µM | 69.7 µM | > 100 µM | > 100 µM |
| CC1CN(C)c2ccccc2N=C1NN (stereo not given) | > 100 µM | > 100 µM | – | > 100 µM | > 100 µM | > 100 µM | > 100 µM | > 100 µM |
| O=C(Cc1ccc(O)c(O)c1)NCc1c[nH]c2ccccc12 | 47.8 µM | > 100 µM | > 100 µM | – | > 100 µM | > 100 µM | 69.5 µM | – |
| C[C@]12CC[C@H](O)CC1=CC[C@@H]1[C@@H]2CC[C@]2(C)C(=N/N)/C(=N\O)C[C@@H]12 | > 100 µM | – | > 100 µM | > 100 µM | > 100 µM | > 100 µM | > 100 µM | 43.4 µM |
| COc1ncc(/C=C2\OC(=O)c3ccccc32)c(OC)n1 | > 100 µM | > 100 µM | > 100 µM | > 100 µM | – | – | > 100 µM | > 100 µM |
| Cc1oc2c(cc(O)c3cc(O)ccc32)c2cccc1-2 | > 100 µM | > 100 µM | > 100 µM | – | – | > 100 µM | > 100 µM | > 100 µM |
| CCOP(=O)(OCC)C(F)(F)c1ccc(CC(NC(=O)OC(C)(C)C)C(=O)O)cc1 (stereo not given) | > 10 µM | > 10 µM | > 10 µM | > 10 µM | > 10 µM | – | > 10 µM | > 10 µM |
| Cn1c(=O)c2c(nc3n2CC(C(=O)O)N3)n(C)c1=O (stereo not given) | – | > 100 µM | > 100 µM | > 100 µM | > 100 µM | > 100 µM | > 100 µM | > 100 µM |
| CC1=Nc2ccccc2OC(C)=C1N=Nc1ccc2nc(C)[nH]c2c1 | > 100 µM | – | > 100 µM | > 100 µM | > 100 µM | > 100 µM | > 100 µM | > 100 µM |
| Nc1c(-c2ccc(Cl)c(Cl)c2)c2ccc([N+](=O)[O-])cc2c(=O)n1-c1nc2ccccc2s1 | 0.525 µM | – | 21.1 µM | 50.3 µM | > 100 µM | 14.4 µM | 30.5 µM | > 34.1 µM |
| CCCCOC(=O)Nc1ccc(S(=O)(=O)Nc2ccccc2Cl)cc1 | 57.3 µM | 53.8 µM | 42.1 µM | – | 41.2 µM | 38.8 µM | 46.6 µM | 36 µM |
| Nn1c(Nc2ccc(S(=O)(=O)Nc3ncccn3)cc2)nnc(/C=C/c2c(O)ccc3ccccc23)c1=O | 47.9 µM | > 100 µM | 60.3 µM | – | > 100 µM | 51.1 µM | 75.8 µM | > 100 µM |
| O=S(=O)(c1ccccc1)c1cccc2c1NCCC2 | > 100 µM | > 100 µM | > 100 µM | > 100 µM | > 100 µM | > 10 µM | > 100 µM | – |
| Oc1ccc(Cc2cc(Cc3ccc(O)cc3)cc(Cc3ccc(O)cc3)c2)cc1 | – | > 50 µM | > 50 µM | > 50 µM | > 50 µM | > 50 µM | > 50 µM | > 50 µM |
| O=[N+]([O-])c1ccc2[nH]nc(OCc3ccccc3Cl)c2c1 | > 100 µM | > 100 µM | – | > 100 µM | > 100 µM | 90.6 µM | 61.3 µM | > 100 µM |
